Reference: PMC3723356 (Journal of natural products, 2013)

Biological target: human δ-opioid receptor (Homo sapiens, UniProt P41143)
Test: [35S]-GTPγS functional assay
Type: biochemical
Settings: from [35S]-GTPγS assay

Sequence of human δ-opioid receptor (P41143 whole entry): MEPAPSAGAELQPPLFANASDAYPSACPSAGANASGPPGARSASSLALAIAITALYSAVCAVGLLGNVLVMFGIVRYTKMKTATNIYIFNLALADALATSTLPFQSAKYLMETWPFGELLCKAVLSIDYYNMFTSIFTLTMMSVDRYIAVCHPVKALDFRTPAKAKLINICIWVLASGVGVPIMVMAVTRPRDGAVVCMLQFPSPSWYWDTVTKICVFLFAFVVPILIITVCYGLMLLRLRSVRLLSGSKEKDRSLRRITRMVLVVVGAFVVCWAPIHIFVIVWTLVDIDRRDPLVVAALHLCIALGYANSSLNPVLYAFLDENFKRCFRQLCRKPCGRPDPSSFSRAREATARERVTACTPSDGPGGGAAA

## COc1cc(O)c2c(c1)CC(=O)CCCC(=O)CCC[C@@H](C)OC2=O [Compound 4, neocosmosin C]
  classification of functional activity at the human δ-opioid receptor: full agonist
